Assay results taken from US6737383B1, “Herbicidal oxadiazolidines” (priority 1999, dated 2004).

Tests used:
cocklebur = assay: Test B pre/postemergence cocklebur; assay type: in vivo, Xanthium strumarium
Method in brief: (§1)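 Test chemicals in a non-phytotoxic solvent mixture with surfactant were sprayed preemergence onto planted seeds and postemergence onto plants 2 to 18 cm tall (1- to 4-leaf stage). After twelve to sixteen days in a greenhouse, injury was visually rated against untreated controls from 0 (no effect) to 10 (complete control).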

wheat = assay: Test B pre/postemergence wheat; assay type: in vivo, Triticum aestivum
Method in brief: as §1

sugar beet = assay: Test B pre/postemergence sugar beet; assay type: in vivo, Beta vulgaris
Method in brief: as §1

giant foxtail = assay: Test B pre/postemergence giant foxtail; assay type: in vivo, Setaria faberii
Method in brief: as §1

corn = assay: Test B pre/postemergence corn; assay type: in vivo, Zea mays
Method in brief: as §1

rape = assay: Test B pre/postemergence rape; assay type: in vivo, Brassica napus
Method in brief: as §1

pigweed = assay: Test B pre/postemergence pigweed; assay type: in vivo, Amaranthus retroflexus
Method in brief: as §1

bedstraw = assay: Test B pre/postemergence bedstraw; assay type: in vivo, Galium aparine
Method in brief: as §1

velvetleaf = assay: Test B pre/postemergence velvetleaf; assay type: in vivo, Abutilon theophrasti
Method in brief: as §1

wild oat = assay: Test B pre/postemergence wild oat; assay type: in vivo, Avena fatua
Method in brief: as §1

surinam grass = assay: Test B pre/postemergence surinam grass; assay type: in vivo, Brachiaria decumbens
Method in brief: as §1

blackgrass = assay: Test B pre/postemergence blackgrass; assay type: in vivo, Alopecurus myosuroides
Method in brief: as §1

purple nutsedge = assay: Test B pre/postemergence purple nutsedge; assay type: in vivo, Cyperus rotundus
Method in brief: as §1

crabgrass = assay: Test B pre/postemergence crabgrass; assay type: in vivo, Digitaria sanguinalis
Method in brief: as §1

soybean = assay: Test B pre/postemergence soybean; assay type: in vivo, Glycine max
Method in brief: as §1

morningglory = assay: Test B pre/postemergence morningglory; assay type: in vivo, Ipomoea hederacea
Method in brief: as §1

[1] = Postemergence, Rate 62 g/ha, scale 0 to 10, 0 is no effect, 10 is complete control
[2] = Postemergence, Rate 125 g/ha, scale of 0 to 10 where 0 is no effect and 10 is complete control
[3] = Preemergence, Rate 250 g/ha, scale 0 (no effect) to 10 (complete control)
[4] = Rate 62 g/ha, Preemergence, scale 0 to 10
[5] = Rate 250 g/ha, Postemergence, scale 0 to 10, 0 is no effect, 10 is complete control
[6] = Rate 500 g/ha, Postemergence, scale 0 to 10, 0 is no effect, 10 is complete control
[7] = Rate 500 g/ha, Preemergence, scale 0 to 10 (0 no effect, 10 complete control)
[8] = Preemergence, Rate 125 g/ha, scale of 0 to 10 where 0 is no effect and 10 is complete control

**Q.** What does the source list for `CC(C)N(C(=O)n1oc(=O)n(C[C@H](C)Cl)c1=O)c1ccccc1` [Compound 747]?
**A.** Plant response rating, Cocklebur (cocklebur; [1]): 0; Cocklebur plant response rating (cocklebur; [2]): 0; Cocklebur plant response rating (cocklebur; [3]): 0; Cocklebur plant response rating (cocklebur; [4]): 0; Cocklebur plant response rating (cocklebur; [5]): 2; Cocklebur plant response rating (cocklebur; [6]): 4; Cocklebur plant response rating (cocklebur; [7]): 0; Plant response rating, Wheat (wheat; [1]): 0; Wheat plant response rating (wheat; [2]): 0; Wheat plant response rating (wheat; [3]): 0; Wheat plant response rating (wheat; [4]): 0; Wheat plant response rating (wheat; [5]): 4; Wheat plant response rating (wheat; [6]): 4; Plant response rating, Sugarbeets (sugar beet; [1]): 0; Sugarbeets plant response rating (sugar beet; [2]): 0; Plant response rating, Sugarbeets (sugar beet; [8]): 6; Sugarbeets plant response rating (sugar beet; [3]): 7; Sugarbeets plant response rating (sugar beet; [4]): 4; Sugarbeets plant response rating (sugar beet; [5]): 0; Sugarbeets plant response rating (sugar beet; [6]): 3; Plant response rating, Giant foxtail (giant foxtail; [1]): 8; Giant foxtail plant response rating (giant foxtail; [2]): 9; Plant response rating, Giant foxtail (giant foxtail; [8]): 10; Giant foxtail plant response rating (giant foxtail; [3]): 10; Giant foxtail plant response rating (giant foxtail; [4]): 10; Giant foxtail plant response rating (giant foxtail; [5]): 9; Giant foxtail plant response rating (giant foxtail; [6]): 9; Giant foxtail plant response rating (giant foxtail; [7]): 10; Plant response rating, Corn (corn; [1]): 0; Corn plant response rating (corn; [2]): 0; Plant response rating, Corn (corn; [8]): 2; Corn plant response rating (corn; [3]): 6; Corn plant response rating (corn; [4]): 2; Corn plant response rating (corn; [5]): 4; Corn plant response rating (corn; [6]): 5; Corn plant response rating (corn; [7]): 9; Plant response rating, Rape (rape; [1]): 4; Rape plant response rating (rape; [2]): 4; Plant response rating, Rape (rape; [8]): 9; Rape plant response rating (rape; [3]): 10; Rape plant response rating (rape; [4]): 7; Rape plant response rating (rape; [5]): 4; Rape plant response rating (rape; [6]): 9; Plant response rating, Redroot pigweed (pigweed; [1]): 4; Redroot pigweed plant response rating (pigweed; [2]): 4; Redroot pigweed plant response rating (pigweed; [3]): 8; Redroot pigweed plant response rating (pigweed; [4]): 8; Redroot pigweed plant response rating (pigweed; [5]): 7; Redroot pigweed plant response rating (pigweed; [6]): 8; Plant response rating, Bedstraw (bedstraw; [1]): 8; Bedstraw plant response rating (bedstraw; [2]): 8; Plant response rating, Bedstraw (bedstraw; [8]): 0; Bedstraw plant response rating (bedstraw; [4]): 0; Bedstraw plant response rating (bedstraw; [7]): 0; Plant response rating, Velvetleaf (velvetleaf; [1]): 0; Velvetleaf plant response rating (velvetleaf; [2]): 4; Plant response rating, Velvetleaf (velvetleaf; [8]): 6; Velvetleaf plant response rating (velvetleaf; [3]): 7; Velvetleaf plant response rating (velvetleaf; [4]): 4; Velvetleaf plant response rating (velvetleaf; [5]): 4; Velvetleaf plant response rating (velvetleaf; [6]): 7; Velvetleaf plant response rating (velvetleaf; [7]): 7; Plant response rating, Wild oats (wild oat; [1]): 0; Wild oats plant response rating (wild oat; [2]): 0; Wild oats plant response rating (wild oat; [3]): 3; Wild oats plant response rating (wild oat; [4]): 3; Wild oats plant response rating (wild oat; [5]): 2; Wild oats plant response rating (wild oat; [6]): 2; Plant response rating, B. signalgrass (surinam grass; [1]): 1; B. signalgrass plant response rating (surinam grass; [2]): 3; B. signalgrass plant response rating (surinam grass; Preemergence, Rate 62 g/ha, scale of 0 to 10 where 0 is no effect and 10 is complete control): 7; Plant response rating, B. signalgrass (surinam grass; [8]): 8; B. signalgrass plant response rating (surinam grass; [5]): 4; B. signalgrass plant response rating (surinam grass; [6]): 6; B. signalgrass plant response rating (surinam grass; [7]): 9; Plant response rating, Blackgrass (blackgrass; [1]): 5; Blackgrass plant response rating (blackgrass; [2]): 7; Plant response rating, Blackgrass (blackgrass; [8]): 8; Blackgrass plant response rating (blackgrass; [4]): 8; Blackgrass plant response rating (blackgrass; [5]): 8; Blackgrass plant response rating (blackgrass; [6]): 8; Blackgrass plant response rating (blackgrass; [7]): 8; Plant response rating, Nutsedge (purple nutsedge; [1]): 0; Nutsedge plant response rating (purple nutsedge; [2]): 0; Plant response rating, Nutsedge (purple nutsedge; [8]): 2; Nutsedge plant response rating (purple nutsedge; [3]): 4; Nutsedge plant response rating (purple nutsedge; [4]): 0; Nutsedge plant response rating (purple nutsedge; [5]): 0; Nutsedge plant response rating (purple nutsedge; [6]): 0; Nutsedge plant response rating (purple nutsedge; [7]): 2; Plant response rating, Crabgrass (crabgrass; [1]): 3; Crabgrass plant response rating (crabgrass; [2]): 9; Plant response rating, Crabgrass (crabgrass; [8]): 10; Crabgrass plant response rating (crabgrass; [3]): 10; Crabgrass plant response rating (crabgrass; [4]): 10; Crabgrass plant response rating (crabgrass; [5]): 9; Crabgrass plant response rating (crabgrass; [6]): 9; Crabgrass plant response rating (crabgrass; [7]): 10; Plant response rating, Soybean (soybean; [1]): 4; Soybean plant response rating (soybean; [2]): 4; Plant response rating, Soybean (soybean; [8]): 0; Soybean plant response rating (soybean; [3]): 0; Soybean plant response rating (soybean; [4]): 0; Soybean plant response rating (soybean; [5]): 7; Soybean plant response rating (soybean; [6]): 8; Soybean plant response rating (soybean; [7]): 9; Plant response rating, Morningglory (morningglory; [1]): 2; Morningglory plant response rating (morningglory; [2]): 9; Plant response rating, Morningglory (morningglory; [8]): 0; Morningglory plant response rating (morningglory; [3]): 0; Morningglory plant response rating (morningglory; [4]): 0; Morningglory plant response rating (morningglory; [5]): 10; Morningglory plant response rating (morningglory; [6]): 10; Morningglory plant response rating (morningglory; [7]): 7
